Data from patent US20190054022A1, “FORMULATIONS OF SITE-SPECIFIC, MICROPARTICULATE COMPOSITIONS AND THEIR USE TO IMPROVE OUTCOME AFTER ANEURSYMAL SUBARACHNOID HEMORRHAGE” (Edge Therapeutics, Inc., priority 2016, published 2019).
Where two headings read alike, the source gives them in different places. One block for each molecule: values may come before it.

Columns and labels:
[1] = test system: patients with aneurysmal SAH; conditions: in vivo; cited from earlier work
[2] = test system: patients with SAH secured by surgical clipping; conditions: cited from earlier work
[3] = test system: patients with SAH secured by endovascular coiling; conditions: cited from earlier work; for patients with primary end point: placebo 27%; for patients with poor outcome (extended Glasgow Outcome Scale score <1=4): placebo 24%
[4] = test system: double hemorrhage dog model of SAH; assay: Mongrel dog SAH study: behavior, blood pressure, microthrombi, neuronal injury; type: in vivo, mongrel dogs; conditions: placebo microparticle plus oral nimodipine
Experimental: Blood was injected into the cisterna magna using the same procedure as on day 1 except that microparticles were not injected. Angiography was repeated on days 8 and 15. The diameter of the basilar artery was measured at 5 equally spaced points by two blinded observers and the means averaged. Angiographic vasospasm was assessed by comparing the diameters of basilar arteries from Days 1, 8 and 15 and the time course and severity of angiographic vasospasm was determined. Dogs were weighed weekly and examined daily for 14 days, including behavior examination [Zhou C, Yamaguchi […], Zhang J H. Role of p53 and apoptosis in cerebral vasospasm after experimental subarachnoid hemorrhage. J Cereb Blood Flow Metab 2005; 25:572-82.]. […] Indirect blood pressure was measured in awake dogs daily for the first 14 days and weekly thereafter. Dogs were euthanized by an intravenous overdose of sodium pentobarbital. They were perfused through the heart with PBS followed by 10% neutral buffered formalin. […] Neuronal degeneration and apoptosis were scored by a pathologist blinded to the assigned group on a semi-quantitative scale as normal, minimal, mild, moderate or severe. Microthrombi present in three (3) 100×100 μm fields were counted.

[5] = Mongrel dog SAH study: plasma and CSF nimodipine concentration; type: in vivo, mongrel dogs; conditions: oral 5.2 mg/kg daily, day 3 (highest), n=7
[6] = Nimodipine release in vivo: plasma concentration after subcutaneous injection; set-up: species or system Wistar rats; conditions: 20 mg/kg or 200 mg/kg
Experimental: A mobile phase of water:methyl alcohol:tetrahydrofuran was used (60:20:20) at 2 mL/min with detection at 235 nm.
Blood samples were collected from two alternating cohorts of 2 or 3 animals/cohort in the microparticle formulation-injected groups. Collection was immediately before injection and then 1, 12, and 24 hours post dose, and on days 4, 8, 11, and 15. After the last blood sample collection interval, the surviving animals were euthanized via carbon dioxide inhalation. Animals were euthanized by cervical dislocation and the carcasses were discarded.

[7] = oral, total single day dose of 360 mg; cited from earlier work
[8] = test system: double hemorrhage dog model of SAH; assay: Mongrel dog SAH efficacy study: angiographic vasospasm (basilar artery diameter); type: in vivo, mongrel dogs
Experimental: Dose translation from animal to human studies revisited. […] Dogs were euthanized on day 28 or 49. Dogs were anesthetized as described above, blood was collected and blood pressure, temperature, heart rate and oxygen saturation were monitored continuously while animals were under anesthesia. Blood gases were obtained before and after the injections. Cerebral angiography was performed through a 4F catheter inserted into the femoral artery and advanced under fluoroscopic guidance into the proximal portion of one vertebral artery using a guide wire. […] Images were captured digitally using identical exposure factors and magnification and an internal magnification standard was included in every angiogram. […] One half of the blood was injected, followed by injection of microparticles and then the remaining blood. The needle was withdrawn and the dogs were kept 30° head down for 15 minutes after which the femoral catheter was removed, the artery was ligated, and the incision was closed. For […] injection, the blood was injected into the cisterna magna and then the dog was placed prone in a stereotactic unit. […] Blood was injected into the cisterna magna using the same procedure as on day 1 except that microparticles were not injected. Angiography was repeated on days 8 and 15. The diameter of the basilar artery was measured at 5 equally spaced points by two blinded observers and the means averaged. Angiographic vasospasm was assessed by comparing the diameters of basilar arteries from Days 1, 8 and 15 and the time course and severity of angiographic vasospasm was determined. Dogs were weighed weekly and examined daily for 14 days, including behavior examination [Zhou C, Yamaguchi […], Zhang J H. Role of p53 and apoptosis in cerebral vasospasm after experimental subarachnoid hemorrhage. J Cereb Blood Flow Metab 2005; 25:572-82.]. […] Indirect blood pressure was measured in awake dogs daily for the first 14 days and weekly thereafter.

[9] = test system: K+ and Na+ currents, and L, P/Q and T-type calcium currents; conditions: cited from earlier work
R-type calcium current = target: T1, R-type calcium current (Rattus norvegicus, UniProt Q07652); conditions: at 40 nM concentration; cited from earlier work
T1 construct: R-type calcium current in the neurohypophysial nerve endings at 40 nM concentration; host or cells: neurohypophysial nerve endings
T1 sequence (Q07652 whole entry): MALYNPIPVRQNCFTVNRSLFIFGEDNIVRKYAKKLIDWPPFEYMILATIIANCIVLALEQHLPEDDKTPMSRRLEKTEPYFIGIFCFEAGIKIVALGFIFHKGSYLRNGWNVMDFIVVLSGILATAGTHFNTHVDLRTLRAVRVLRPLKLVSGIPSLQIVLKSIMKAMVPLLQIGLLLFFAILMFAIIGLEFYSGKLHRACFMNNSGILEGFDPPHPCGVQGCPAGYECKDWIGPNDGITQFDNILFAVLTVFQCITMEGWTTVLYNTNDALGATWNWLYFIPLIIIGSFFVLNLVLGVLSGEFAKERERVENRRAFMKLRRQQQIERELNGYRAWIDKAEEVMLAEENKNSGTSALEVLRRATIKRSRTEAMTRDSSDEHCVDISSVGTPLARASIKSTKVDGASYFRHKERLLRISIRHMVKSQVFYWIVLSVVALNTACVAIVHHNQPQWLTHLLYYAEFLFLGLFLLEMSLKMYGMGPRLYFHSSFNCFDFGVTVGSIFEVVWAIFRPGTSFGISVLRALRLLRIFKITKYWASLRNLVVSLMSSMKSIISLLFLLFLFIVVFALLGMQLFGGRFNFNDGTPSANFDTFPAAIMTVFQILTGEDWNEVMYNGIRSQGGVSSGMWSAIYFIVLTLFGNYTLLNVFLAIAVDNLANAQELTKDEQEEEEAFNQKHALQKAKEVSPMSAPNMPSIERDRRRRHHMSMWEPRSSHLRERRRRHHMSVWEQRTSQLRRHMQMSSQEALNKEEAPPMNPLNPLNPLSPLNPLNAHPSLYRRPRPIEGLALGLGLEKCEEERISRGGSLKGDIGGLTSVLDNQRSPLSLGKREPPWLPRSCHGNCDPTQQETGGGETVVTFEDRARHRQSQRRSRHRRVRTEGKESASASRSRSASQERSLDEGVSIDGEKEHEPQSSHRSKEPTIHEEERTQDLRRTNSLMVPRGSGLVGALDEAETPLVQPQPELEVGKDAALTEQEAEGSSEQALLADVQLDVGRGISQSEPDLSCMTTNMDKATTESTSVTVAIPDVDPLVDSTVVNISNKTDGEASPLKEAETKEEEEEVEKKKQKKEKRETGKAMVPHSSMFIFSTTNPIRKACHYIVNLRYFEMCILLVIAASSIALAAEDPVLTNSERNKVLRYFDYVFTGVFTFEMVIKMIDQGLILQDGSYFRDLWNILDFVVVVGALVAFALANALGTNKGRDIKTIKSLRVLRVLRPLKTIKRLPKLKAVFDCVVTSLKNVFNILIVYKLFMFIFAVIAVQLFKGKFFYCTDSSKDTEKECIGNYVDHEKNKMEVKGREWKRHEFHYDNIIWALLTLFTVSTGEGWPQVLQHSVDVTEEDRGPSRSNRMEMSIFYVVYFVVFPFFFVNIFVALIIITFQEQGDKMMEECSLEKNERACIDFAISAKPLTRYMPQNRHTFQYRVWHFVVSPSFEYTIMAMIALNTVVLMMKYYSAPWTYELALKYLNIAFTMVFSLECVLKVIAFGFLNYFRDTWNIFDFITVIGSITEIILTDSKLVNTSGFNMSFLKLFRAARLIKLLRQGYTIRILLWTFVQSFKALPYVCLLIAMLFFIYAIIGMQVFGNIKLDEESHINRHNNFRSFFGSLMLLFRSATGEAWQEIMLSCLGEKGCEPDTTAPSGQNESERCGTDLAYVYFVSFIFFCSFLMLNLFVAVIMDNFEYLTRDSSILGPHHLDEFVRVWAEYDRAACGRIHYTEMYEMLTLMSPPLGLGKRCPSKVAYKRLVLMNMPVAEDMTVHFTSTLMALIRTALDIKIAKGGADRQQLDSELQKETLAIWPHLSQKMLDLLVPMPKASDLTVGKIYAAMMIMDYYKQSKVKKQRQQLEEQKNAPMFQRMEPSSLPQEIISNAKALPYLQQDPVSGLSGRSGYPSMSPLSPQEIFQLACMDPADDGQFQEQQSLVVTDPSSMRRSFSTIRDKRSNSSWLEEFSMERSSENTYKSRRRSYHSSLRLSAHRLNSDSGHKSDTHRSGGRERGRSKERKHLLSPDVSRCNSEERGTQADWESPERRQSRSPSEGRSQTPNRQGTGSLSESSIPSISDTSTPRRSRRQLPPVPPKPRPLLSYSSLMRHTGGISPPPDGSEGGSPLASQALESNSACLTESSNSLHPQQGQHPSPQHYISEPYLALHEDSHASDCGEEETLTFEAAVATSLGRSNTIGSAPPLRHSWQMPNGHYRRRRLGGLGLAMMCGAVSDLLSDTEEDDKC

N-type calcium current = N-type calcium current (Homo sapiens, UniProt Q00975); conditions: at 300 nM to 500 nM; cited from earlier work
N-type calcium current, sequence (Q00975 whole entry): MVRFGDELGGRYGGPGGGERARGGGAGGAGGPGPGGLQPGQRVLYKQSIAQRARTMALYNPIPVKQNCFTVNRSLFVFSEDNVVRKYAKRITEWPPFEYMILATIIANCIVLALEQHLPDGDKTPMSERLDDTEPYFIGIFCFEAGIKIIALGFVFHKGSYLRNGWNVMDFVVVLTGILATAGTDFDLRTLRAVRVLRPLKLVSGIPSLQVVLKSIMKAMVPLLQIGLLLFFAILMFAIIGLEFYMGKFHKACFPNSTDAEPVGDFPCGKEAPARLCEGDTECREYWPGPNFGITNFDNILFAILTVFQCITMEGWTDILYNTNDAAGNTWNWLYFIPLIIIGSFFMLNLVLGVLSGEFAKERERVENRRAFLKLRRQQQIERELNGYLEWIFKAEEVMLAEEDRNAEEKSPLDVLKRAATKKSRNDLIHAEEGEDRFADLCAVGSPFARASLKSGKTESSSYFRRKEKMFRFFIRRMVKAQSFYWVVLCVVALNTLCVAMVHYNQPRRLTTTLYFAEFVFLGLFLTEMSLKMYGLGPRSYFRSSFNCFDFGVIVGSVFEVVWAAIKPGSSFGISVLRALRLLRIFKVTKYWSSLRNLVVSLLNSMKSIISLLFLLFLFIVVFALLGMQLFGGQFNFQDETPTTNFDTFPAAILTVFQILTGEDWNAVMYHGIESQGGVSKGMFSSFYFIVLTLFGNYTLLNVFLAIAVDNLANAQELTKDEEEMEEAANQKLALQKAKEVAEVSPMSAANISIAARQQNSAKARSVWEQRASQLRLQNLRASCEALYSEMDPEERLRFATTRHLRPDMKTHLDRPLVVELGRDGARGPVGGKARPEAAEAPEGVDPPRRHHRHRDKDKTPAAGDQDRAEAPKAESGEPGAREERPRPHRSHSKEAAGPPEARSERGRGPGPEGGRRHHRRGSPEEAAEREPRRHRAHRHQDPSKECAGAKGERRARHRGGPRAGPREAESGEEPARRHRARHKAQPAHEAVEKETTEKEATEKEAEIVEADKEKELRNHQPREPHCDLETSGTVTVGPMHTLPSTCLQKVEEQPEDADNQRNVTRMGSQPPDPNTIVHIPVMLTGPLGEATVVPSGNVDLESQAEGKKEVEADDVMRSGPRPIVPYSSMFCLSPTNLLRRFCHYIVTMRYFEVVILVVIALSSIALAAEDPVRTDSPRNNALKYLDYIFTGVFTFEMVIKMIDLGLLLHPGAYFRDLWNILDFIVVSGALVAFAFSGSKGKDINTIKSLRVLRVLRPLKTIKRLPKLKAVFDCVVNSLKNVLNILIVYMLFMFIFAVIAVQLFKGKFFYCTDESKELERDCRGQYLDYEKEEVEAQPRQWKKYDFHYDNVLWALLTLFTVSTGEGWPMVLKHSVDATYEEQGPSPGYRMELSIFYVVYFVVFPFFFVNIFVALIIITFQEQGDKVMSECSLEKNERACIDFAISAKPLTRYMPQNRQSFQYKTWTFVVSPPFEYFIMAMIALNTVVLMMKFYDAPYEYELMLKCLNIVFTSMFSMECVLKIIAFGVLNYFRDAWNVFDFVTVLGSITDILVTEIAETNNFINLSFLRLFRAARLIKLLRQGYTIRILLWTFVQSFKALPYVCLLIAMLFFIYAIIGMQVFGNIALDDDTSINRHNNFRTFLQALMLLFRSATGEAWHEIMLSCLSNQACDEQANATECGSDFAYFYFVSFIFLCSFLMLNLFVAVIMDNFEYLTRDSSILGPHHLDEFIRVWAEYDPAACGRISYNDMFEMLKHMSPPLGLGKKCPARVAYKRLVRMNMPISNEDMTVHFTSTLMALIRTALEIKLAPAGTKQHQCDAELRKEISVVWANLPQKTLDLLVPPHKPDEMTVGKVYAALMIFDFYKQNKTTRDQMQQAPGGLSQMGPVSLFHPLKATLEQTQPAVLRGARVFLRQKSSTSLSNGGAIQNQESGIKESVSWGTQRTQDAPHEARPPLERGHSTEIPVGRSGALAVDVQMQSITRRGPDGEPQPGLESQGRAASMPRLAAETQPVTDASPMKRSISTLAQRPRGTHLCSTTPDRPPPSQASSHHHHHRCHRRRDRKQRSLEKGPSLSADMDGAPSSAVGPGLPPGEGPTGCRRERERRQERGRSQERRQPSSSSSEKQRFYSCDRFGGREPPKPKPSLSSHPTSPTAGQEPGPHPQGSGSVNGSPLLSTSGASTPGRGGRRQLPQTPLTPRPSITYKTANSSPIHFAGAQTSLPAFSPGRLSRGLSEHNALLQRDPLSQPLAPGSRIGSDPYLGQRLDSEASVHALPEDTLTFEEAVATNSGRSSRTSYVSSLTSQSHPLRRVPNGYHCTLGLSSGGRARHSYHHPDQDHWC

[10] = placebo microparticles + oral nimodipine 5.2 mg/kg daily for 21 days, n = 8

Molecule: COc1ccccc1Oc1c(NS(=O)(=O)c2ccc(C)cn2)nc(-c2ccnc(-c3nnn[nH]3)c2)nc1OCCO [clazosentan]
incidence of angiographic vasospasm after aneurysmal SAH [1]: significantly reduced the incidence of angiographic vasospasm
patients meeting primary composite endpoint (week 6): all-cause mortality, vasospasm-related new cerebral infarcts, delayed ischemic neurological deficit, rescue therapy ([2]; 5 mg/h up to 14 days, 161 of 764, placebo 25%): 21%
relative risk reduction, primary endpoint ([2]; 5 mg/h, 95% CI −4 to 33, p=0.10): 17%
patients with poor functional outcome (GOSE score <1=4) ([2]; 5 mg/h, 224 patients, placebo 25%): 29%
Mortality (week 12) ([2]; 5 mg/h, both groups): 6%
adverse events versus placebo ([2]; 5 mg/h): Lung complications, anaemia, and hypotension were more common
effect on mortality and vasospasm-related morbidity or functional outcome ([2]; 5 mg/h): no significant effect
relative risk reduction, poor functional outcome ([2]; 5 mg/h, −45 to 4, p=0.10): −18%
patients with primary end point ([3]; 5 mg/h, 47/194): 24%
odds ratio, primary end point ([3]; 5 mg/h, 95% CI 0.479-1.289, P=0.340): 0.786
odds ratio, poor outcome ([3]; 5 mg/h, 95% CI 0.546-1.544, P=0.748): 0.918
patients with poor outcome (extended Glasgow Outcome Scale score <1=4) ([3]; 5 mg/h): 25%
patients with primary end point ([3]; 15 mg/h, 28/188): 15%
odds ratio, primary end point ([3]; 15 mg/h, 95% CI 0.275-0.818, P=0.007): 0.474
odds ratio, poor outcome ([3]; 15 mg/h, 95% CI 0.802-2.227, P=0.266): 1.337
post aneurysmal SAH vasospasm-related morbidity/all-cause mortality ([3]; 15 mg/h): significantly reduced
patients with poor outcome (extended Glasgow Outcome Scale score <1=4) ([3]; 15 mg/h): 28%
adverse events versus placebo ([3]; 5 or 15 mg/h): Pulmonary complications, anemia, and hypotension were more common
outcome (extended Glasgow Outcome Scale) ([3]; 5 or 15 mg/h): neither dose improved outcome

concentration of nimodipine in CSF [5]: 1.56 ± 1.17 ng/mL
Molecule: COCCOC(=O)C1=C(C)NC(C)=C(C(=O)OC(C)C)C1c1cccc([N+](=O)[O-])c1 (centres unmarked) [nimodipine, Isopropyl 2-methoxyethyl 1,4-dihydro-2,6-dimethyl-4-(m-nitrophenyl)-3,5-pyridinedicarboxylate]
dogs with microthrombi [4]: one
release of nimodipine over time in vivo (plasma) [6]: Sustained release of nimodipine over time was observed
bioavailability [7]: about 28%
% change compared to day 1, Day 8 [8, 10]: (−27.9 ± 3.0) %
% change compared to day 1, Day 15 [8, 10]: (−11.7 ± 4.5) %
Angiographic diameter of basilar artery (mm), Day 8 [8, 10]: 1.08 ± 0.12 mm
Angiographic diameter of basilar artery (mm), Day 15 [8, 10]: 1.32 ± 0.17 mm
Angiographic diameter of basilar artery (mm), Day 1 ([8]; placebo microparticles + oral nimodipine 5.2 mg/kg daily for 21 days, n = 8, baseline): 1.51 ± 0.13 mm
basilar artery diameter 8 and 15 days after SAH versus day 1 ([8]; placebo microparticles with oral nimodipine, ANOVA P=0.001): significant reductions in basilar artery diameter

Molecule: SNX-482
effect on other currents [9]: no effect is observed
block of R-type calcium current (R-type calcium current): blocks
block of N-type calcium current (N-type calcium current): 30-50%
